Experimental data: patent US6551774B1, “Diagnostic methods for conditions associated with elevated cellular levels of telomerase activity” (Board of Regents, The University of Texas System, priority 1992, dated 2003)

Assays:
[1] = system: Tetrahymena cells; experiment: Telomere length in vegetatively grown Tetrahymena by Southern blot; assay type: cell-based, Tetrahymena thermophila; settings: up to 1 mM, 5 days of subculturing (15-20 cell generations), 2% PPYS
Protocol: For analysis of macronuclear DNA from cultures containing the nucleoside analog AZT (Sigma), or controls lacking analog, at various timepoints during vegetative divisions, cells from stationary stock cultures were inoculated into 25 ml thymine-deficient Iso-sensitest broth (‘Isobroth’, Oxoid USA) in 250 ml flasks. Cultures were incubated at 30° C. with shaking (100 rpm) for 48 hours. Cells were counted and plated at 1000 cells/1.5 ml in 24-well plates (Falcon) and grown at 30° C., without shaking, for 48 hours. 5 μl of these log phase cells were used to inoculate 1 ml cultures (Isobroth) containing varied concentrations of nucleoside analog. Thereafter, every 2-4 days cells were transferred, either 5 μl per well, or 1-3 μl using a multi-pronged replicator into fresh 1 ml broth containing AZT. Remaining cells were pelleted and stored at −80° C. until processed for DNA analysis.
For analysis of macronuclear DNA from vegetative cultures containing the nucleoside analogs Ara-G (Calbiochem), ddG (Calbiochem), or ddI (Calbiochem), or controls lacking analog, stock cultures were grown overnight in 2% PPYS as described. Cells were counted and plated at 100 cells/2 ml in 2% PPYS containing varied amounts of analog, 1% DMSO (Fisher) (as a control for ddG and Ara-G), or 2% PPYS alone. Cells were replica plated into fresh medium every 2-6 days, and remaining cells were pelleted and stored at −80° C. until processed for DNA analysis.
For analysis of macronuclear DNA from vegetative cultures containing d4T (Sigma) or control lacking the analog, stock cultures (SB210 VI) were grown overnight in Isobroth as described. Cells were then counted and duplicate cultures inoculated at 500 cells/5 ml Isobroth in 50 ml conical tubes, and grown at 30° C., shaking 80 rpm. 500-2000 cells were transfered to fresh broth every 2-4 days, and the remainder pelleted and stored at −80° C. until processed for DNA analysis.
Restriction digests, agarose gel electrophoresis, transfer of DNA to Nytran filters (Schleicher and Schuell), and hybridization with ^32P-nick-trapplated or random-primed probes were carried out using standard procedures (Maniatis et.al. 1989). Telomere length was analyzed as described previously for Tetrahymena [Larson 50 Cell, 477, 1987].
Telomere lengths in cells grown in the presence of the different analogs were monitored by Southern blot analysis of DNA samples extracted at a series of time points during the subculturings. The telomeres of cells grown vegetatively in 1 and 5 mM AZT in 2% PPYS medium were reproducibly shortened by up to an average of 170 base pairs compared with the control cultures grown in 2% PPYS in the absence of the drug (FIG. 21A and B). This shortening of telomeres occured in a concentration-dependent manner (FIG. 21B), with at least 50% of the maximal shortening effect occurring by 10 μM AZT, the lowest concentration tested.

[2] = system: Tetrahymena cells; experiment: Progeny formation (cycloheximide resistance) of Tetrahymena conjugated in the presence of analog; assay type: cell-based, Tetrahymena thermophila; settings: for % CHX-R / # CHX-R: first block for the analog; for # CHX-R: number of cycloheximide-resistant wells
Protocol: For analysis of cycloheximide (CHX) sensitivity of cells conjugated in the presence of analog, 50 ml cultures of each cell type were grown overnight in 2% PPYS, starved in Dryl's for 18 hours, mated (5×10^5 cells/ml) for 6 hours, then analog was added. Cells were allowed to complete mating in the presence of the analog. Twenty-four hours after mixing, cells were diluted in Dryl's solution, counted and plated at 1 cell per well of 96-well plates in 1% PPYS without analog. Cells were grown for 4 days in a humid chamber at 30° C., without shaking. Cells were then replica plated into 1% PPYS plus 15 μg/ml cycloheximide, allowed to grow for four days before scoring, and percent of CHX-resistant wells was calculated. Because generation of progeny expressing the cycloheximide marker requires successful production of a new macronucleus, cells whose macronuclear development was disrupted by the analog are killed in CHX.
This process involves de novo formation of new macronuclear telomeres in the progeny cells. Macronuclear development in ciliated protozoans such as Tetrahymena involves developmentally programmed, site-specific fragmentation of germline chromosomes into linear subchromosomes, whose ends are healed by de novo addition of telomeres. […] Because of the immediate requirement for telomere addition to fragmented DNA, it is possible that the latter process might be more sensitive to telomerase inhibition than telomere maintenance during vegetative growth. To test whether nucleoside analogs cause inhibition of macronuclear development due to a disruption of telomere formation, we mated two strains of Tetrahymena which are sensitive to cycloheximide, but whose progeny after mating are resistant to cycloheximide. Synchronized mated cells were treated with AZT at concentrations ranging from 10 μM to 5 mM for a period beginning just prior to when macronuclear development begins and continuing during macronuclear development (the period 6-24 hours after mating was initiated). […] In attempts to maximize the effect of AZT, cells were either refed at 6 hrs with 2% PPYS or Isobroth, or starved until 24 hrs (the duration of the AZT treatment). Such starvation arrests macronuclear development at an intermediate stage. When refed, macronuclear development would then be forced to proceed in the presence of the AZT. Control, unmated parental cells were also plated and exposed to drug.

[3] = system: MDA 157 human breast cancer cells; experiment: Proliferation of MDA 157 cancer cells fed oligonucleotides (Example 2); assay type: cell-based
Protocol: Specifically, MDA 157 human breast cancer cells with an immortal phenotype were seeded at 10,000 cells per well in 12 well tissue culture dishes and fed medium only or medium supplemented with GTO-12 (at 1.0 μM, 0.1 μM, and 0.01 μM). […] Cells fed the GTO-12 oligonucleotide, at 1.0 μM, however, ceased to proliferate after less than 10 doubling. […] The lack of effect of the G+C mixture may reflect the CTO-12 oligonucleotide, competing with or base pairing with the GTO-12 oligonucleotide, this preventing its inhibitory effect on the cancer cell telomerase.

[4] = system: IDH4 immortalized human fibroblast cell line; experiment: IDH4 cells incubated with GTO: population doublings and TRF length (Example 12); assay type: cell-based; settings: for population doublings in 90 days: fed every other day (control 45 PDL)
Protocol: As in Example 2, an immortalized human fibroblast cell line, IDH4, which has very short TRFs, was incubated with GTO oligonucleotide. Referring to FIGS. 15 and 16, cells were incubated in regular culture medium containing serum in the presence of 10 μM, 30 μM and 100 μM GTO. The cells were fed fresh phosphodiester GTO oligonucleotide every other day and subcultured when confluent for a total of 90 days. The cells were still growing in GTO after 90 days at all concentrations used even though they grew more slowly at the higher GTO concentrations and went through fewer population doubling (control, 45 PDL; 10 μM GTO 40 PDL; 30 μM 35 PDL; 100 μM 25 PDL). […] The control and 30 μM GTO were passaged without oligonucleotide addition for an additional 90 days (approximately 35-40 PDL). As is illustrated in FIG. 16, the TRFs slowly shorten.

Compound	telomere length compared with control cultures [1]	% CHX-R ([2]; 0.001 mM analog (head prints MM))	# CHX-R ([2]; 0.001 mM analog)	% CHX-R ([2]; 0.01 mM analog (head prints MM))	# CHX-R ([2]; 0.01 mM analog)	% CHX-R ([2]; 0.1 mM analog (head prints MM))	# CHX-R ([2]; 0.1 mM analog)	% CHX-R ([2]; 1.0 mM analog (head prints MM))	# CHX-R ([2]; 1.0 mM analog)	irreversible disruption of macronuclear development ([2]; analog present during conjugation)	doublings after which cells ceased to proliferate ([3]; 1.0 μM)	proliferation phenotype ([3]; doses of less than 1.0 μM (0.1 μM, 0.01 μM))	TRF length after 90 days ([4]; 10 μM, 30 μM and 100 μM)	population doublings in 90 days ([4]; 10 μM)	population doublings in 90 days ([4]; 30 μM)	population doublings in 90 days ([4]; 100 μM)
O=c1[nH]cnc2c1ncn2[C@H]1CC[C@@H](CO)O1 [ddI]	no changes in telomere length	83%	59	89%	85	78%	83	91%	100	little or no irreversible disruption	–	–	–	–	–	–
5′-TTAGGGTTAGGG-3′ (listed as DNA, chemistry not given here) [GTO-12, guanidine-rich terminal oligonucleotide-12 bp]	–	–	–	–	–	–	–	–	–	–	less than 10 doubling	continued replicating in an immortal phenotype	regained TRF length in a dose dependent manner	40 PDL	35 PDL	25 PDL
